According to ChEMBL document CHEMBL4665881, “Pyrroformyl-containing 2,4-diaminopyrimidine derivatives as a new optimization strategy of ALK inhibitors combating mutations” (Bioorg Med Chem, 2020):

Experiments:
KARPAS-299 = experiment: Antiproliferative activity against human Karpas299 cells assessed as reduction in cell viability incubated for 72 hrs by MTT assay; conditions: KARPAS-299, 72 h
NCI-H2228 = experiment: Antiproliferative activity against human H2228 cells assessed as reduction in cell viability incubated for 72 hrs by MTT assay; type: functional, cell-based; conditions: NCI-H2228, 72 h
A549 = experiment: Antiproliferative activity against human A549 cells assessed as reduction in cell viability incubated for 72 hr by MTT assay; conditions: A549, 72 h
[1] = biological target: ALK tyrosine kinase receptor (Homo sapiens, UniProt Q9UM73, L1196M); experiment: Inhibition of ALK L1196M (unknown origin) incubated for 1 hr
Sequence of ALK tyrosine kinase receptor (Homo sapiens, UniProt Q9UM73, L1196M) (Q9UM73 19-1620 L1196M limits assumed): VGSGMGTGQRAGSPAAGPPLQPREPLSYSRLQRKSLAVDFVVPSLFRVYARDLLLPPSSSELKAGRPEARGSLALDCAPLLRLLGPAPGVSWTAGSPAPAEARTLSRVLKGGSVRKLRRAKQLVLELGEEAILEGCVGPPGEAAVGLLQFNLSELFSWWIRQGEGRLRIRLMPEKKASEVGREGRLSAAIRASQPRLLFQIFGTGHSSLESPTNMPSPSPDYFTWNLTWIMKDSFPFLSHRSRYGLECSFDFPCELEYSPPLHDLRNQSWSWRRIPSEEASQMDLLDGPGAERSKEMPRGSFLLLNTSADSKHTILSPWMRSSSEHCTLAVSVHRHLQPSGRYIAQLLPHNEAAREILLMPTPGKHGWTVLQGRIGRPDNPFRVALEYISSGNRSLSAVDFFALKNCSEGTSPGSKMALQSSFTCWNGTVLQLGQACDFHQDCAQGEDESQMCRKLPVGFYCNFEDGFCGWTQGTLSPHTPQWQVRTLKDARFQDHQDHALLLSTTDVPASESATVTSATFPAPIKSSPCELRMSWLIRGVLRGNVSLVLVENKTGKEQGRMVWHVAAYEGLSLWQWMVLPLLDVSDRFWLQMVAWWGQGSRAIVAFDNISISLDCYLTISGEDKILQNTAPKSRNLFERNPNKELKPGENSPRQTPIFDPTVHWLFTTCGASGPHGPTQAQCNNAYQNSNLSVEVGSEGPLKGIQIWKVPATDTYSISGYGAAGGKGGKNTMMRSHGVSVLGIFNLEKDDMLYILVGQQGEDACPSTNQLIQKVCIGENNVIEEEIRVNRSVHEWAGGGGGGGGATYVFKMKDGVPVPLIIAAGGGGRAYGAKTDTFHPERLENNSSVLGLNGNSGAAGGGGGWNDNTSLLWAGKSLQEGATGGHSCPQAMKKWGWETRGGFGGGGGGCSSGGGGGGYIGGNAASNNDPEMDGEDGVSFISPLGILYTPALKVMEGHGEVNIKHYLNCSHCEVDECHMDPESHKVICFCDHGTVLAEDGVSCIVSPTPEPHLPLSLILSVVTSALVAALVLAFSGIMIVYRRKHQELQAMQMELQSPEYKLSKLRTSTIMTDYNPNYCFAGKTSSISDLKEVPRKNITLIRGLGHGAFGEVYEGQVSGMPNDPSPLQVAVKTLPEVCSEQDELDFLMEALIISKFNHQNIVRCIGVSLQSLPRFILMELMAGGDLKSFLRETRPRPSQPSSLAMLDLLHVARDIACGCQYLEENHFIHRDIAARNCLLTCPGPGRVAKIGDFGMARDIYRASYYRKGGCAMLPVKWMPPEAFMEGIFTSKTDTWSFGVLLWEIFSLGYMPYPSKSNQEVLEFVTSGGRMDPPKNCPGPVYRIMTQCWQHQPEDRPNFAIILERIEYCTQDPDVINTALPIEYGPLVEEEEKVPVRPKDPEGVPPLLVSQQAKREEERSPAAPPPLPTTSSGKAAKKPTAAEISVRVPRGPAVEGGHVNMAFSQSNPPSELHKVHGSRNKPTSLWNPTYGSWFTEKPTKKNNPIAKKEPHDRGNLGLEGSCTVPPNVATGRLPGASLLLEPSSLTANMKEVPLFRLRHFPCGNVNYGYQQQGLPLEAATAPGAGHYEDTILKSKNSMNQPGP

[2] = biological target: ALK tyrosine kinase receptor (Homo sapiens, UniProt Q9UM73); experiment: Inhibition of wild-type ALK (unknown origin) incubated for 1 hr
Sequence of ALK tyrosine kinase receptor (Homo sapiens, UniProt Q9UM73) (Q9UM73 whole entry): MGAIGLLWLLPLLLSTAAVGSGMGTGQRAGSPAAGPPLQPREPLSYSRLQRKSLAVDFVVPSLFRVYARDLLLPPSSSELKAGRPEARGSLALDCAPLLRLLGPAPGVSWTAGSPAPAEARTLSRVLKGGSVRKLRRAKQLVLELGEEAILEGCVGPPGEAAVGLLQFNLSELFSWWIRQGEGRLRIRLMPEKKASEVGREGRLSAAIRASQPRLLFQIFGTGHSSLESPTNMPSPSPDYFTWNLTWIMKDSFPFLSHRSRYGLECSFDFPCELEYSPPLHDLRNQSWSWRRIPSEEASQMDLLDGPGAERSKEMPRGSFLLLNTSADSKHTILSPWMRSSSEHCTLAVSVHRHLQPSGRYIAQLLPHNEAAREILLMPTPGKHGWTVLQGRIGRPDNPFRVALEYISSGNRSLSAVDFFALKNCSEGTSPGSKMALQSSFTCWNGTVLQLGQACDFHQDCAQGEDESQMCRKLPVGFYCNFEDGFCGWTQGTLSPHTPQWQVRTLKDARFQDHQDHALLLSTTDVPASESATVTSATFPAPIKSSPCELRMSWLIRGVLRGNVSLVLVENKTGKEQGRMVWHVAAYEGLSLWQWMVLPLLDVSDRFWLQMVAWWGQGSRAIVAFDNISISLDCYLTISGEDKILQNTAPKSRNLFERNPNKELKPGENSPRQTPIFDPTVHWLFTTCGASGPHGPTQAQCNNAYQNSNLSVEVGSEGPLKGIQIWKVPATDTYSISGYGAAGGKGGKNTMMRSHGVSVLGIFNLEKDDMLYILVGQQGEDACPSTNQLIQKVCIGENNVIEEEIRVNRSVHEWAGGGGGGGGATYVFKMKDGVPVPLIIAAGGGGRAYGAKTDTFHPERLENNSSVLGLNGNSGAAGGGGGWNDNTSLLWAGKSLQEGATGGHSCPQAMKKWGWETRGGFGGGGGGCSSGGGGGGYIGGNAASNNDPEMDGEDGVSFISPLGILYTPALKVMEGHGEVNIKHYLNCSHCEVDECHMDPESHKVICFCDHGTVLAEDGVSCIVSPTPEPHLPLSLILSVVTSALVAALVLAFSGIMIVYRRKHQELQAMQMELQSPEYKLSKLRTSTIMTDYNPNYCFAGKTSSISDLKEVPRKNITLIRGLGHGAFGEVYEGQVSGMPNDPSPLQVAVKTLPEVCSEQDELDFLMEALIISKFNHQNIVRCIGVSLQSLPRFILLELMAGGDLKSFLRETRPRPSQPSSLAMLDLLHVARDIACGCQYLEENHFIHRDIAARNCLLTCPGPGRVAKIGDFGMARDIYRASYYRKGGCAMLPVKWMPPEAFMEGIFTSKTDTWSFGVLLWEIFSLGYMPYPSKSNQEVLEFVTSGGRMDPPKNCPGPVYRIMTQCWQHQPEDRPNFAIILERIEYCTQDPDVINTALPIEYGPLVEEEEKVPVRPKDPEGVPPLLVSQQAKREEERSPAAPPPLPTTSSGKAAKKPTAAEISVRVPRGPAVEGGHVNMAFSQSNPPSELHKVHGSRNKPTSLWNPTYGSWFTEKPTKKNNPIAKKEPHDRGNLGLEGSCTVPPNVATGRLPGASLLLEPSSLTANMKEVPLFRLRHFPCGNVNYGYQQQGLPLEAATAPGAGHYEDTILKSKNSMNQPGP

CNC(=O)c1ccccc1Nc1nc(Nc2ccc(-n3cccc3C(=O)N3CCSCC3)cc2OC)ncc1Cl
IC50 (KARPAS-299): 1140 nM | IC50 (NCI-H2228): 1040 nM | IC50 (A549): 2180 nM

CNC(=O)c1ccccc1Nc1nc(Nc2ccc(-n3cccc3C(=O)OC)cc2OC)ncc1Cl
IC50 (KARPAS-299): 890 nM | IC50 (NCI-H2228): 970 nM | IC50 (A549): 8510 nM

CCN(CC)C(=O)c1cccn1-c1ccc(Nc2ncc(Cl)c(Nc3ccccc3C(=O)NC)n2)c(OC)c1
IC50 (KARPAS-299): 270 nM | IC50 (NCI-H2228): 540 nM | IC50 (A549): 3490 nM

COc1cc(-n2cccc2C(=O)N2CCSCC2)ccc1Nc1ncc(Cl)c(Nc2ccccc2NS(C)(=O)=O)n1
IC50 (KARPAS-299): 930 nM | IC50 [1]: 8.3 nM | IC50 (NCI-H2228): 700 nM | IC50 (A549): 1470 nM | IC50 [2]: 4.5 nM

COc1cc(-n2cccc2C(=O)O)ccc1Nc1ncc(Cl)c(Nc2ccccc2NS(C)(=O)=O)n1
IC50 (KARPAS-299): 72 nM | IC50 (NCI-H2228): 64 nM | IC50 (A549): 1060 nM

COc1cc(-n2cccc2C(=O)NCCO)ccc1Nc1ncc(Cl)c(Nc2ccccc2NS(C)(=O)=O)n1
IC50 (KARPAS-299): 45 nM | IC50 [1]: 3.1 nM | IC50 (NCI-H2228): 34 nM | IC50 (A549): > 10000 nM | IC50 [2]: 1.9 nM

Cc1cc(Nc2ncc(Cl)c(Nc3ccccc3S(=O)(=O)C(C)C)n2)c(OC(C)C)cc1C1CCNCC1 [CERITINIB]
IC50 (NCI-H2228): 1070 nM

CNC(=O)c1ccccc1Nc1nc(Nc2ccc(-n3cccc3C(=O)N(C)C)cc2OC)ncc1Cl
IC50 (KARPAS-299): 1070 nM | IC50 (NCI-H2228): 89 nM | IC50 (A549): 4120 nM

CNC(=O)c1ccccc1Nc1nc(Nc2ccc(-n3cccc3C(=O)NCCO)cc2OC)ncc1Cl
IC50 (KARPAS-299): 790 nM | IC50 [1]: 13.4 nM | IC50 (NCI-H2228): 43 nM | IC50 (A549): > 10000 nM | IC50 [2]: 9.6 nM

COc1cc(-n2cccc2C(=O)N2CCC(O)CC2)ccc1Nc1ncc(Cl)c(Nc2ccccc2NS(C)(=O)=O)n1
IC50 (KARPAS-299): 970 nM | IC50 (NCI-H2228): 660 nM | IC50 (A549): > 10000 nM

CNC(=O)c1ccccc1Nc1nc(Nc2ccc(-n3cccc3C(=O)O)cc2OC)ncc1Cl
IC50 (KARPAS-299): 170 nM | IC50 (NCI-H2228): 87 nM | IC50 (A549): 2490 nM

COc1cc(-n2cccc2C(=O)N2CCN(C)CC2)ccc1Nc1ncc(Cl)c(Nc2ccccc2NS(C)(=O)=O)n1
IC50 (KARPAS-299): 970 nM | IC50 (NCI-H2228): 1050 nM | IC50 (A549): > 10000 nM

COc1cc(-n2cccc2C(=O)N(C)C)ccc1Nc1ncc(Cl)c(Nc2ccccc2NS(C)(=O)=O)n1
IC50 (KARPAS-299): 78 nM | IC50 (NCI-H2228): 54 nM | IC50 (A549): > 10000 nM

COc1cc(-n2cccc2C(=O)N2CCOCC2)ccc1Nc1ncc(Cl)c(Nc2ccccc2NS(C)(=O)=O)n1
IC50 (KARPAS-299): 640 nM | IC50 (NCI-H2228): 610 nM | IC50 (A549): 1770 nM

CNC(=O)c1ccccc1Nc1nc(Nc2ccc(-n3cccc3C(=O)N3CCCCC3)cc2OC)ncc1Cl
IC50 (KARPAS-299): 1610 nM | IC50 (NCI-H2228): 990 nM | IC50 (A549): > 10000 nM

CCN(CC)C(=O)c1cccn1-c1ccc(Nc2ncc(Cl)c(Nc3ccccc3NS(C)(=O)=O)n2)c(OC)c1
IC50 (KARPAS-299): 105 nM | IC50 (NCI-H2228): 87 nM | IC50 (A549): 970 nM

CCN1CCN(C(=O)c2cccn2-c2ccc(Nc3ncc(Cl)c(Nc4ccccc4C(=O)NC)n3)c(OC)c2)CC1
IC50 (KARPAS-299): 940 nM | IC50 (NCI-H2228): 1270 nM | IC50 (A549): 1570 nM

CNC(=O)c1ccccc1Nc1nc(Nc2ccc(-n3cccc3C(=O)N3CC(O)C3)cc2OC)ncc1Cl
IC50 (KARPAS-299): 740 nM | IC50 (NCI-H2228): 44 nM | IC50 (A549): 4130 nM

CNC(=O)c1ccccc1Nc1nc(Nc2ccc(-n3cccc3C(=O)N3CCOCC3)cc2OC)ncc1Cl
IC50 (KARPAS-299): 1030 nM | IC50 (NCI-H2228): 840 nM | IC50 (A549): 2210 nM

CNC(=O)c1ccccc1Nc1nc(Nc2ccc(-n3cccc3C(=O)N3CCC(C)CC3)cc2OC)ncc1Cl
IC50 (KARPAS-299): 2310 nM | IC50 (NCI-H2228): 1070 nM | IC50 (A549): > 10000 nM

CNC(=O)c1ccccc1Nc1nc(Nc2ccc(-n3cccc3C(=O)N3CCC(O)CC3)cc2OC)ncc1Cl
IC50 (KARPAS-299): 970 nM | IC50 (NCI-H2228): 1070 nM | IC50 (A549): > 10000 nM

COc1cc(-n2cccc2C(=O)N2CCCCC2)ccc1Nc1ncc(Cl)c(Nc2ccccc2NS(C)(=O)=O)n1
IC50 (KARPAS-299): 1040 nM | IC50 (NCI-H2228): 630 nM | IC50 (A549): > 10000 nM

COc1cc(-n2cccc2C(=O)N2CCC(C)CC2)ccc1Nc1ncc(Cl)c(Nc2ccccc2NS(C)(=O)=O)n1
IC50 (KARPAS-299): 1370 nM | IC50 (NCI-H2228): 1050 nM | IC50 (A549): 2200 nM

COc1cc(-n2cccc2C(=O)N2CCN(CCO)CC2)ccc1Nc1ncc(Cl)c(Nc2ccccc2NS(C)(=O)=O)n1
IC50 (KARPAS-299): 1250 nM | IC50 (NCI-H2228): 1080 nM | IC50 (A549): > 10000 nM

COc1cc(-n2cccc2C(=O)N2CC(O)C2)ccc1Nc1ncc(Cl)c(Nc2ccccc2NS(C)(=O)=O)n1
IC50 (KARPAS-299): 81 nM | IC50 (NCI-H2228): 44 nM | IC50 (A549): 2080 nM

COC(=O)c1cccn1-c1ccc(Nc2ncc(Cl)c(Nc3ccccc3NS(C)(=O)=O)n2)c(OC)c1
IC50 (KARPAS-299): 790 nM | IC50 (NCI-H2228): 950 nM | IC50 (A549): 2510 nM

COc1cc(-n2cccc2C(=O)N2CCCC2)ccc1Nc1ncc(Cl)c(Nc2ccccc2NS(C)(=O)=O)n1
IC50 (KARPAS-299): 870 nM | IC50 (NCI-H2228): 600 nM | IC50 (A549): 4580 nM

CCN1CCN(C(=O)c2cccn2-c2ccc(Nc3ncc(Cl)c(Nc4ccccc4NS(C)(=O)=O)n3)c(OC)c2)CC1
IC50 (KARPAS-299): 1410 nM | IC50 [1]: 11.7 nM | IC50 (NCI-H2228): 1130 nM | IC50 (A549): > 10000 nM | IC50 [2]: 8.5 nM

CNC(=O)c1ccccc1Nc1nc(Nc2ccc(-n3cccc3C(=O)N3CCN(C)CC3)cc2OC)ncc1Cl
IC50 (KARPAS-299): 90 nM | IC50 (NCI-H2228): 980 nM | IC50 (A549): > 10000 nM

CNC(=O)c1ccccc1Nc1nc(Nc2ccc(-n3cccc3C(=O)N3CCCC3)cc2OC)ncc1Cl
IC50 (KARPAS-299): 840 nM | IC50 (NCI-H2228): 770 nM | IC50 (A549): > 10000 nM

CNC(=O)c1ccccc1Nc1nc(Nc2ccc(-n3cccc3C(=O)N3CCN(CCO)CC3)cc2OC)ncc1Cl
IC50 (KARPAS-299): 430 nM | IC50 (NCI-H2228): 1410 nM | IC50 (A549): > 10000 nM
